According to ChEMBL document CHEMBL1133428, “Naphthyl ketones: a new class of Janus kinase 3 inhibitors” (Bioorg Med Chem Lett, 2000):

Columns and labels:
[1] = molecular target: Tyrosine-protein kinase JAK1 (Homo sapiens, UniProt P23458); experiment: Inhibition of Janus kinase 1
[2] = molecular target: Cyclin-dependent kinase 4 (Homo sapiens, UniProt P11802); experiment: Inhibition of Cyclin-dependent kinase 4
[3] = molecular target: Tyrosine-protein kinase Lck (Homo sapiens, UniProt P06239); experiment: Inhibition of p56 Lck tyrosine kinase
[4] = molecular target: Epidermal growth factor receptor (Homo sapiens, UniProt P00533); experiment: Inhibition of Epidermal growth factor receptor
Chain of Epidermal growth factor receptor (P00533 whole entry): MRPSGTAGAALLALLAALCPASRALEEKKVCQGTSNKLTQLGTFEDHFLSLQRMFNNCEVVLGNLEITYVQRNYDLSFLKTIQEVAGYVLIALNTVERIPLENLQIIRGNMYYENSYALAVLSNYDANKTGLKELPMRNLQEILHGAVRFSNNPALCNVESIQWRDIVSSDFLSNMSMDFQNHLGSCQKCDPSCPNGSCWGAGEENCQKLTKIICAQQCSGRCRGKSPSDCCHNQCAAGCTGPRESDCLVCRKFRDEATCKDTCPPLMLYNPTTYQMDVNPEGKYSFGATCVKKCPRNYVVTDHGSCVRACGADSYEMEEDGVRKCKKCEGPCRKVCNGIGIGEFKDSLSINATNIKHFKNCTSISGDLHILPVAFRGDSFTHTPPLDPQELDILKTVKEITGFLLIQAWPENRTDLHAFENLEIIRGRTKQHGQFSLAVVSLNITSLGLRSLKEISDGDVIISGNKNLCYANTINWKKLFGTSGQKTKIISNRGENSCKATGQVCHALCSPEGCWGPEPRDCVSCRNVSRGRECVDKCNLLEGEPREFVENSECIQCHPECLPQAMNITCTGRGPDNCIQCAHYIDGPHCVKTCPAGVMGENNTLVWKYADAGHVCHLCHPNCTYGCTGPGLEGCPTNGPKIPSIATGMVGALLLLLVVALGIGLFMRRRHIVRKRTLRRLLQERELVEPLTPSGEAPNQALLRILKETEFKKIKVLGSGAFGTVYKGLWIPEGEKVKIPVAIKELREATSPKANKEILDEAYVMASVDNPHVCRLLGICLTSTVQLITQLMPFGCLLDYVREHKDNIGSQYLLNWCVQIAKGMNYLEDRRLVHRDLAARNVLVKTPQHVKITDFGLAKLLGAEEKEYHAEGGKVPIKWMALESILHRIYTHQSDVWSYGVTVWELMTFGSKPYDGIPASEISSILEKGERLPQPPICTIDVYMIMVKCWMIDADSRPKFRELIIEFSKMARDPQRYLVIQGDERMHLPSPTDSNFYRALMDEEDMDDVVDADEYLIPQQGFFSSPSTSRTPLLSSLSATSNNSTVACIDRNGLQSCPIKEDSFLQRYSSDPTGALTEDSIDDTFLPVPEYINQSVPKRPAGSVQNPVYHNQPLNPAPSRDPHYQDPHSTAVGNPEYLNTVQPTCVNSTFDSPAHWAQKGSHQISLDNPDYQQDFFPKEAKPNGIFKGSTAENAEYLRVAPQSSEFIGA

Chain of Tyrosine-protein kinase JAK1 (P23458 whole entry): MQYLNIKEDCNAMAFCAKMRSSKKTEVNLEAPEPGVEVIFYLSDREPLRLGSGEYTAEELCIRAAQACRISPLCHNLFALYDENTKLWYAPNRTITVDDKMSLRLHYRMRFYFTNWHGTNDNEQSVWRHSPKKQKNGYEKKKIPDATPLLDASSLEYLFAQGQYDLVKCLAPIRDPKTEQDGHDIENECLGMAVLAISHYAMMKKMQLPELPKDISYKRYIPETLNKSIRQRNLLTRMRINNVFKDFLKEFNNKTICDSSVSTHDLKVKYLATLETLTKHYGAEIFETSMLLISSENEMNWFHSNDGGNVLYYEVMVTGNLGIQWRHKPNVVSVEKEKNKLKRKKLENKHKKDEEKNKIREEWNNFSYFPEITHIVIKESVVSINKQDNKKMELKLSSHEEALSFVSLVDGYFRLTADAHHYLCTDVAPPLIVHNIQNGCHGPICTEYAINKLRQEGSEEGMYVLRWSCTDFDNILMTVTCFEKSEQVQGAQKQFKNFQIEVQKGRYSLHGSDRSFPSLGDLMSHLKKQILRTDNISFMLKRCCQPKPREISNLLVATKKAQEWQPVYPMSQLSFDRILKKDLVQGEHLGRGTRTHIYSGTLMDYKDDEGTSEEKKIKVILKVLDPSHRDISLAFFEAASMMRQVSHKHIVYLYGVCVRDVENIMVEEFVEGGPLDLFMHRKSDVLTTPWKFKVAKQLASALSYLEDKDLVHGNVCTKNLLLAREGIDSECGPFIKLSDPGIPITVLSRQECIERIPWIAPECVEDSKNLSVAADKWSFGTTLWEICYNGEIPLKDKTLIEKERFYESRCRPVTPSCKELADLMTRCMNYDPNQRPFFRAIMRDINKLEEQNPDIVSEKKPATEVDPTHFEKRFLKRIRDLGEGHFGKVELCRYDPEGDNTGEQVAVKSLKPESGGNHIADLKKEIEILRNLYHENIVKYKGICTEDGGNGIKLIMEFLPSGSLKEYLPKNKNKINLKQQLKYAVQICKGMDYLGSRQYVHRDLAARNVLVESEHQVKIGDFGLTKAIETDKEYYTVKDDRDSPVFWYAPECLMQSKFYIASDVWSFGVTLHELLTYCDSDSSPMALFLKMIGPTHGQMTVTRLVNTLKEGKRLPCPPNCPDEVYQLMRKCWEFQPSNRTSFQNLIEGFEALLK
Chain of Tyrosine-protein kinase Lck (P06239 whole entry): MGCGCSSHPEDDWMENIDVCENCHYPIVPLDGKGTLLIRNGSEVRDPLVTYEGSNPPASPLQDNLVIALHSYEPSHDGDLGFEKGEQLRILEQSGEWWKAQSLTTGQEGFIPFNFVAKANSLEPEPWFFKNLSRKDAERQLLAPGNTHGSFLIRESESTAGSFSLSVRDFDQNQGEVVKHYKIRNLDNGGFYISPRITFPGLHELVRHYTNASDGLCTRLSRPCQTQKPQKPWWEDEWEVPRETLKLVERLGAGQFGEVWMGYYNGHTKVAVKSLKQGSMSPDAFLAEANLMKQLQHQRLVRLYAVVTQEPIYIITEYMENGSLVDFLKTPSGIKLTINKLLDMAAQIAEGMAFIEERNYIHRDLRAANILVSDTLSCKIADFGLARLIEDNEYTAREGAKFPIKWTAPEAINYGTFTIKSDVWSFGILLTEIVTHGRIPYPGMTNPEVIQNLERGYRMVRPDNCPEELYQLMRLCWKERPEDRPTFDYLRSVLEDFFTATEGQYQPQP
Chain of Cyclin-dependent kinase 4 (P11802 whole entry): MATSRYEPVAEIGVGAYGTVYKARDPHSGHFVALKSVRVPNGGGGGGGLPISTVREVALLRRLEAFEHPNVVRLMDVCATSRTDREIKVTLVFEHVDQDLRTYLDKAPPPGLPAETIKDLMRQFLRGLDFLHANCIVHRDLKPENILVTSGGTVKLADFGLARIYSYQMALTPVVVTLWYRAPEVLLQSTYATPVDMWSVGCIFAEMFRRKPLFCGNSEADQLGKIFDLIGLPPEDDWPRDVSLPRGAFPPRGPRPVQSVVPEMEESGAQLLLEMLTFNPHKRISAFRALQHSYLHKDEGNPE

SMILES | IC50 [1] [µM] | IC50 [2] [µM] | IC50 [3] [µM] | IC50 [4] [µM]
C=CC(=O)c1ccc2ccccc2c1 | 20 | > 10 | > 10 | 10
CC(C)N(CCC(=O)c1ccc2ccccc2c1)Cc1ccccc1 | 39.8 | > 10 | > 10 | 2.51
